From patent US10450292B2, “Inhibitors of bacterial RNA polymerase: arylpropanoyl, arylpropenoyl, and arylcyclopropanecarboxyl phloroglucinols” (Rutgers, The State University of New Jersey, priority 2015, dated 2019)
In brackets after ≈: the same amount, converted by molar mass.

Columns and labels:
[1] = tested on: Enterococcus faecalis ATCC 19433; test: Inhibition of bacterial growth in culture, spiral gradient endpoint assay (MIC); format: cell-based; conditions: Enterococcus faecalis, ATCC 19433 /, 16 h, read-out: MIC E. faecalis, Mueller-Hinton II agar, 16 h at 37° C.
From the text: J. Microbiol. Meths. […] Int. J. Exp. Clin. Chemother. […] Adv.

[2] = tested on: Escherichia coli D21f2tolC; test: microbe, parasite or virus in culture; conditions: 16 h, read-out: MIC E. coli D21f2tolC, Mueller-Hinton II agar, 16 h at 37° C.
[3] = tested on: Staphylococcus aureus ATCC 12600; test: Inhibition of bacterial growth in culture, spiral gradient endpoint assay (MIC); conditions: Staphylococcus aureus, ATCC12600, 16 h, read-out: MIC S. aureus 12600, Mueller-Hinton II agar, 16 h at 37° C.

SMILES | MIC [1] [µg/mL] | MIC [2] [µg/mL] | MIC [3] [µg/mL]
Cc1cc(Oc2ccc(F)cc2)ccc1CCC(=O)c1c(O)cc(O)cc1O [Example 34, 3-(4-(4-fluorophenoxy)-2-methylphenyl)-1-(2,4,6-trihydroxyphenyl)propan-1-one] | 5.2 (≈ 13.6 µM) | 1.1 (≈ 2.88 µM) | 3.6 (≈ 9.41 µM)
O=C(CCc1ccc(Oc2ccc(C(F)(F)F)cc2)cc1)c1c(O)cc(O)cc1O [Example 35, 3-(4-(4-(trifluoromethyl)phenoxy)phenyl)-1-(2,4,6-trihydroxyphenyl)propan-1-one] | 5.1 (≈ 12.2 µM) | 1.3 (≈ 3.11 µM) | 3.5 (≈ 8.37 µM)
Cc1cc(Oc2ccc(F)cc2)ccc1C1CC1C(=O)c1c(O)cc(O)cc1O (stereo not drawn) [Example 36, (2-(4-(4-fluorophenoxy)-2-methylphenyl)cyclopropyl)(2,4,6-trihydroxyphenyl)methanone] | 4.4 (≈ 11.2 µM) | 1.7 (≈ 4.31 µM) | 2.4 (≈ 6.09 µM)
O=C(CCc1ccc(Oc2ccc(F)cc2)cc1C(F)(F)F)c1c(O)cc(O)cc1O [Example 37, 3-(4-(4-fluorophenoxy)-2-(trifluoromethyl)phenyl)-1-(2,4,6-trihydroxyphenyl)propan-1-one] | 4.4 (≈ 10.1 µM) | 2.4 (≈ 5.5 µM) | 3.5 (≈ 8.02 µM)
COc1ccc(C2CC2C(=O)c2c(O)cc(O)cc2O)cc1 (stereo not drawn) [Example 38, (2-(4-methoxyphenyl)cyclopropyl)(2,4,6-trihydroxyphenyl)methanone] | > 40 | > 40 | > 40
Cc1cc(Oc2ccccc2)ccc1C1CC1C(=O)c1c(O)cc(O)cc1O (stereo not drawn) [Example 39, (2-(2-methyl-4-phenoxyphenyl)cyclopropyl)(2,4,6-trihydroxyphenyl)methanone] | 4.1 (≈ 10.9 µM) | 1.6 (≈ 4.25 µM) | 3.6 (≈ 9.56 µM)
Cc1cc(Oc2ccccc2)ccc1/C=C/C(=O)c1c(O)cc(O)c(Cl)c1O [Example 40, (E)-1-(3-chloro-2,4,6-trihydroxyphenyl)-3-(2-methyl-4-phenoxyphenyl)prop-2-en-1-one] | > 40 | 9.4 (≈ 23.7 µM) | > 40
Cc1cc(Oc2ccccc2)ccc1CCC(=O)c1c(O)cc(O)c(Cl)c1O [Example 41, 1-(3-chloro-2,4,6-trihydroxyphenyl)-3-(2-methyl-4-phenoxyphenyl)propan-1-one] | 19 (≈ 47.6 µM) | 9.4 (≈ 23.6 µM) | 19 (≈ 47.6 µM)
Cc1cc(Oc2ccccc2)ccc1C1CC1C(=O)c1c(O)cc(O)c(Cl)c1O (stereo not drawn) [Example 42, (3-chloro-2,4,6-trihydroxyphenyl)(2-(2-methyl-4-phenoxyphenyl)cyclopropyl)methanone] | 16 (≈ 38.9 µM) | 10 (≈ 24.3 µM) | 14 (≈ 34.1 µM)
O=C(c1c(O)cc(O)cc1O)C1CC1c1ccc(Oc2ccc(F)cc2F)cc1 (stereo not drawn) [Example 43, (2-(4-(2,4-difluorophenoxy)phenyl)cyclopropyl)(2,4,6-trihydroxyphenyl) methanone] | 8.4 (≈ 21.1 µM) | 2.8 (≈ 7.03 µM) | 6.6 (≈ 16.6 µM)
O=C(c1c(O)cc(O)cc1O)C1CC1c1ccc(Oc2ccc(F)cc2)cc1C(F)(F)F (stereo not drawn) [Example 44, (2-(4-(4-fluorophenoxy)-2-(trifluoromethyl)phenyl)cyclopropyl)(2,4,6-trihydroxyphenyl)methanone] | 1.8 (≈ 4.01 µM) | 1.5 (≈ 3.35 µM) | 1.5 (≈ 3.35 µM)
O=C(CCc1ccc(Oc2ccc(F)cc2)cc1)c1c(O)cc(O)c(Cl)c1O [Example 45, 1-(3-chloro-2,4,6-trihydroxyphenyl)-3-(4-(4-fluorophenoxy)phenyl)propan-1-one] | 11 (≈ 27.3 µM) | 5.2 (≈ 12.9 µM) | 9.6 (≈ 23.8 µM)
O=C(c1c(O)cc(O)c(Cl)c1O)C1CC1c1ccc(Oc2ccc(F)cc2)cc1 (stereo not drawn) [Example 46, (3-chloro-2,4,6-trihydroxyphenyl)(2-(4-(4-fluorophenoxy)phenyl)cyclopropyl)methanone] | 12 (≈ 28.9 µM) | 6.6 (≈ 15.9 µM) | 9.6 (≈ 23.1 µM)
O=C(c1c(O)cc(O)cc1O)C1CC1c1ccc(Cl)cc1C(F)(F)F (stereo not drawn) [Example 47, (2-(4-chloro-2-(trifluoromethyl)phenyl)cyclopropyl)(2,4,6-trihydroxyphenyl)methanone] | 9.6 (≈ 25.8 µM) | 4.8 (≈ 12.9 µM) | 9.6 (≈ 25.8 µM)
O=C(/C=C/c1ccc(Oc2ccc(F)cc2)cc1)c1c(O)cc(O)c(Cl)c1O [Example 48, (E)-1-(3-chloro-2,4,6-trihydroxyphenyl)-3-(4-(4-fluorophenoxy)phenyl)prop-2-en-1-one] | > 40 | 20 (≈ 49.9 µM) | > 40
O=C(CCc1ccc(Oc2ccc(F)cc2)cc1C(F)(F)F)c1c(O)cc(O)c(Cl)c1O [Example 49, 1-(3-chloro-2,4,6-trihydroxyphenyl)-3-(4-(4-fluorophenoxy)-2-(trifluoromethyl)phenyl)propan-1-one] | 12 (≈ 25.5 µM) | 12 (≈ 25.5 µM) | 12 (≈ 25.5 µM)

SMILES | MIC [1] [µg/mL] | MIC [2] [µg/mL] | MIC [3] [µg/mL]
Cc1cc(Oc2ccc(F)cc2)ccc1CCC(=O)c1c(O)cc(O)c(Cl)c1O [Example 50, 1-(3-chloro-2,4,6-trihydroxyphenyl)-3-(4-(4-fluorophenoxy)-2-methylphenyl)propan-1-one] | 18 (≈ 43.2 µM) | 19 (≈ 45.6 µM) | 16 (≈ 38.4 µM)
O=C(c1c(O)cc(O)c(Cl)c1O)C1CC1c1ccc(Oc2ccc(F)cc2)cc1C(F)(F)F (stereo not drawn) [Example 51, (3-chloro-2,4,6-trihydroxyphenyl)(2-(4-(4-fluorophenoxy)-2-(trifluoromethyl)phenyl)cyclopropyl)methanone] | 15 (≈ 31.1 µM) | 16 (≈ 33.1 µM) | 11 (≈ 22.8 µM)
Cc1cc(Oc2ccc(F)cc2)ccc1C1CC1C(=O)c1c(O)cc(O)c(Cl)c1O (stereo not drawn) [Example 52, (3-chloro-2,4,6-trihydroxyphenyl)(2-(4-(4-fluorophenoxy)-2-methylphenyl)cyclopropyl)methanone] | 5.2 (≈ 12.1 µM) | 7.5 (≈ 17.5 µM) | 3.2 (≈ 7.46 µM)
Cc1cc(Cl)ccc1C1CC1C(=O)c1c(O)cc(O)cc1O (stereo not drawn) [Example 53, (2-(4-chloro-2-methylphenyl)cyclopropyl)(2,4,6-trihydroxyphenyl)methanone] | 5.3 (≈ 16.6 µM) | 4.7 (≈ 14.7 µM) | 4.7 (≈ 14.7 µM)
O=C(c1c(O)cc(O)c(Cl)c1O)C1CC1c1ccc(Cl)cc1C(F)(F)F (stereo not drawn) [Example 54, (3-chloro-2,4,6-trihydroxyphenyl)(2-(4-chloro-2-(trifluoromethyl)phenyl)cyclopropyl)methanone] | 17 (≈ 41.8 µM) | 17 (≈ 41.8 µM) | 12 (≈ 29.5 µM)
O=C(c1c(O)cc(O)c(Cl)c1O)C1CC1c1ccc(Cl)cc1 (stereo not drawn) [Example 55, (3-chloro-2,4,6-trihydroxyphenyl)(2-(4-chlorophenyl)cyclopropyl)methanone] | 22 (≈ 64.9 µM) | > 40 | 17 (≈ 50.1 µM)
Cc1cc(Cl)ccc1C1CC1C(=O)c1c(O)cc(O)c(Cl)c1O (stereo not drawn) [Example 56, (3-chloro-2,4,6-trihydroxyphenyl)(2-(4-chloro-2-methylphenyl)cyclopropyl)methanone] | 22 (≈ 62.3 µM) | > 40 | 17 (≈ 48.1 µM)
O=C(c1c(O)cc(O)cc1O)C1CC1c1ccc(C(F)(F)F)cc1C(F)(F)F (stereo not drawn) [Example 57, (2-(2,4-bis(trifluoromethyl)phenyl)cyclopropyl)(2,4,6-trihydroxyphenyl)methanone] | 5.7 (≈ 14 µM) | 3.5 (≈ 8.61 µM) | 4.3 (≈ 10.6 µM)
O=C(c1c(O)cc(O)cc1O)C1CC1c1ccc(C(F)(F)F)cc1 (stereo not drawn) [Example 58, (2-(4-(trifluoromethyl)phenyl)cyclopropyl)(2,4,6-trihydroxyphenyl)methanone] | 12 (≈ 35.5 µM) | 3.9 (≈ 11.5 µM) | 10 (≈ 29.6 µM)
CCCC1=C(O)C(CCC)(CCC)C(=O)C(C(=O)C2CC2c2ccc(Oc3ccccc3)cc2)=C1O (stereo not drawn) [Example 59, 3,5-dihydroxy-2-(2-(4-phenoxyphenyl)cyclopropanecarbonyl)-4,6,6-tripropylcyclohexa-2,4-dienone] | 3 (≈ 6.14 µM) | 1.1 (≈ 2.25 µM) | 0.7 (≈ 1.43 µM)
CCCC1(CCC)C(=O)C(C(=O)C2CC2c2ccc(Oc3ccccc3)cc2)=C(O)C=C1O (stereo not drawn) [Example 60, 3,5-dihydroxy-2-(2-(4-phenoxyphenyl)cyclopropanecarbonyl)-6,6-dipropylcyclohexa-2,4-dien-1one] | > 40 | 3.9 (≈ 8.73 µM) | 10 (≈ 22.4 µM)
CCC1=C(O)C(CC)(CC)C(=O)C(C(=O)CCc2ccc(Oc3ccc(F)cc3)cc2)=C1O [Example 61, 4,6,6-triethyl-2-(3-(4-(4-fluorophenoxy)phenyl)propanoyl)-3,5-dihydroxycyclohexa-2,4-dienone] | 0.44 (≈ 0.972 µM) | 0.24 (≈ 0.53 µM) | 0.56 (≈ 1.24 µM)
CCC1=C(O)C(CC)(CC)C(=O)C(C(=O)C2CC2c2ccc(Oc3ccc(F)cc3)cc2)=C1O (stereo not drawn) [Example 62, 4,6,6-triethyl-2-(2-(4-(4-fluorophenoxy)phenyl)cyclopropanecarbonyl)-3,5-dihydroxycyclohexa-2,4-dienone] | 0.51 (≈ 1.1 µM) | 0.28 (≈ 0.603 µM) | 0.4 (≈ 0.861 µM)
CCCC1(CCC)C(=O)C(C(=O)CCc2ccc(Oc3ccc(F)cc3)cc2)=C(O)C=C1O [Example 63, 2-(3-(4-(4-fluorophenoxy)phenyl)propanoyl)-3,5-dihydroxy-6,6-dipropylcyclohexa-2,4-dienone] | > 40 | 2.4 (≈ 5.3 µM) | 5.1 (≈ 11.3 µM)
CCCC1=C(O)C(CCC)(CCC)C(=O)C(C(=O)CCc2ccc(Oc3ccc(F)cc3)cc2)=C1O [Example 64, 2-(3-(4-(4-fluorophenoxy)phenyl)propanoyl)-3,5-dihydroxy-4,6,6-tripropylcyclohexa-2,4-dienone] | 0.34 (≈ 0.687 µM) | 0.34 (≈ 0.687 µM) | 0.26 (≈ 0.526 µM)
CCCC1(CCC)C(=O)C(C(=O)C2CC2c2ccc(Oc3ccc(F)cc3)cc2)=C(O)C=C1O (stereo not drawn) [Example 65, 2-(2-(4-(4-fluorophenoxy)phenyl)cyclopropanecarbonyl)-3,5-dihydroxy-6,6-dipropylcyclohexa-2,4-dienone] | 1.9 (≈ 4.09 µM) | > 40 | 1.9 (≈ 4.09 µM)
